Biological target: T1, human mAChR M4 (Homo sapiens, UniProt P08173)
T1 construct: expressed in transfected cells; host or cells: CHO-K1 (ATCC), stably co-expressing chimeric G protein Gqi5
T1 sequence (P08173 1-479): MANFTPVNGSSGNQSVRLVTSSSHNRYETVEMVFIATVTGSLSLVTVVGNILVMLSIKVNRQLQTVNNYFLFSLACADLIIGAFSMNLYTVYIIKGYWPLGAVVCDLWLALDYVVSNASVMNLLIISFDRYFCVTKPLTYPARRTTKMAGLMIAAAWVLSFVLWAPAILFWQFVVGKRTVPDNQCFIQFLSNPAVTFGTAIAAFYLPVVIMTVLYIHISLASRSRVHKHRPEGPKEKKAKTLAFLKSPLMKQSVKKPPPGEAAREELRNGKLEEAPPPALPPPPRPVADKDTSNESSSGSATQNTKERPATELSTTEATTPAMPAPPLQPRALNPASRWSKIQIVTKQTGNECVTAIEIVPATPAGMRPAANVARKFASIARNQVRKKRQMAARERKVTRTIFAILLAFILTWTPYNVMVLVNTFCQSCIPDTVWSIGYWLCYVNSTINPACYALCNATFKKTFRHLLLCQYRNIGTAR
Experiment: mAChR M4 cell-based functional assay (calcium mobilization, EC80 acetylcholine), human M4
Details: Table 10; for IC50: M4/Gqi5/CHO-K1 cells, decrease of EC80 acetylcholine response
In short: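 CHO-K1 cells stably expressing human M4 with chimeric Gqi5; intracellular calcium rise read on FDSS as fluorescence static ratio at 1 Hz. Compounds in 10-point 1:3 dilution series; IC50 taken as concentration-dependent decrease of the EC80 acetylcholine response, four-parameter logistic fit.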

Row | Structure (SMILES) | Human M4 Emin [%] | IC50 [nM]
1 | CC(C)(C)CCN1C[C@H]2C[C@H](Nc3ccc(N4CCOCC4)nn3)C[C@H]2C1 [Compound 143, (3aR,5s,6aS)-2-(3,3-dimethylbutyl)-N-(6-morpholinopyridazin-3-yl)-3,3a,4,5,6,6a-hexahydro-1H-cyclopenta[c]pyrrol-5-amine] | 6 | 5020
2 | Cc1cnn(C)c1-c1ccc(NC(=O)[C@@H]2C[C@@H]3CN(CCC(C)(C)C)C[C@@H]3C2)nn1 [Compound 144, (3aR,5r,6aS)-2-(3,3-dimethylbutyl)-N-[6-(2,4-dimethylpyrazol-3-yl)pyridazin-3-yl]-3,3a,4,5,6,6a-hexahydro-1H-cyclopenta[c]pyrrole-5-carboxamide] | 5 | 405
3 | Cc1cnn(C)c1-c1ccc(NC(=O)[C@H]2C[C@@H]3CN(CCC(C)(C)C)C[C@@H]3C2)nn1 [Compound 145, (3aR,5s,6aS)-2-(3,3-dimethylbutyl)-N-[6-(2,4-dimethylpyrazol-3-yl)pyridazin-3-yl]-3,3a,4,5,6,6a-hexahydro-1H-cyclopenta[c]pyrrole-5-carboxamide] | 4 | 239
4 | Cc1cnn(C)c1-c1ccc(OC[C@H]2C[C@@H]3CN(CCC(C)(C)C)C[C@@H]3C2)nn1 [Compound 146, (3aR,5s,6aS)-2-(3,3-dimethylbutyl)-5-[[6-(2,4-dimethylpyrazol-3-yl)pyridazin-3-yl]oxymethyl]-3,3a,4,5,6,6a-hexahydro-1H-cyclopenta[c]pyrrole] | 4 | 167
5 | Cc1cnn(C)c1-c1ccc(OC[C@@H]2C[C@@H]3CN(CCC(C)(C)C)C[C@@H]3C2)nn1 [Compound 147, (3aR,5r,6aS)-2-(3,3-dimethylbutyl)-5-[[6-(2,4-dimethylpyrazol-3-yl)pyridazin-3-yl]oxymethyl]-3,3a,4,5,6,6a-hexahydro-1H-cyclopenta[c]pyrrole] | 4 | 42.4
6 | CC(=O)Nc1ccc(-c2ccc(N[C@H]3C[C@@H]4CN(CCC(C)(C)C)C[C@@H]4C3)c(F)c2F)cc1 [Compound 148, N-[4-[4-[[(3aR,5s,6aS)-2-(3,3-dimethylbutyl)-3,3a,4,5,6,6a-hexahydro-1H-cyclopenta[c]pyrrol-5-yl]amino]-2,3-difluoro-phenyl]phenyl]acetamide] | 4 | 997
7 | Cc1nn(C)cc1-c1ccc(N[C@H]2C[C@@H]3CN(CCC(C)(C)C)C[C@@H]3C2)nc1 [Compound 149, (3aR,5s,6aS)-2-(3,3-dimethylbutyl)-N-[5-(1,3-dimethylpyrazol-4-yl)-2-pyridyl]-3,3a,4,5,6,6a-hexahydro-1H-cyclopenta[c]pyrrol-5-amine] | 4 | 127
8 | Cc1nn(C)cc1-c1ccc(N[C@H]2C[C@@H]3CN(CC45CC6CC(CC(C6)C4)C5)C[C@@H]3C2)nc1 [Compound 150, (3aR,5s,6aS)-2-(1-adamantylmethyl)-N-[5-(1,3-dimethylpyrazol-4-yl)-2-pyridyl]-3,3a,4,5,6,6a-hexahydro-1H-cyclopenta[c]pyrrol-5-amine] | 3 | 161
9 | Cc1nn(C)cc1-c1ccc(N[C@H]2C[C@@H]3CN(CC4CC5C=CC4C5)C[C@@H]3C2)nc1 (stereo partly drawn) [Compound 151, (3aR,5s,6aS)-2-(5-bicyclo[2.2.1]hept-2-enylmethyl)-N-[5-(1,3-dimethylpyrazol-4-yl)-2-pyridyl]-3,3a,4,5,6,6a-hexahydro-1H-cyclopenta[c]pyrrol-5-amine] | 3 | 77.3
10 | Cc1nn(C)cc1-c1ccc(N[C@H]2C[C@@H]3CN(CC4CCOCC4)C[C@@H]3C2)nc1 [Compound 152, (3aR,5s,6aS)-N-[5-(1,3-dimethylpyrazol-4-yl)-2-pyridyl]-2-(tetrahydropyran-4-ylmethyl)-3,3a,4,5,6,6a-hexahydro-1H-cyclopenta[c]pyrrol-5-amine] | 8 | 1580
11 | Cc1nn(C)cc1-c1cnc(N[C@H]2C[C@@H]3CN(CCC(C)(C)C)C[C@@H]3C2)cn1 [Compound 153, (3aR,5s,6aS)-2-(3,3-dimethylbutyl)-N-[5-(1,3-dimethylpyrazol-4-yl)pyrazin-2-yl]-3,3a,4,5,6,6a-hexahydro-1H-cyclopenta[c]pyrrol-5-amine] | 5 | 124
12 | Cc1nn(C)cc1-c1cnc(N[C@H]2C[C@@H]3CN(CC4CC5C=CC4C5)C[C@@H]3C2)cn1 (stereo partly drawn) [Compound 154, (3aR,5s,6aS)-2-(5-bicyclo[2.2.1]hept-2-enylmethyl)-N-[5-(1,3-dimethylpyrazol-4-yl)pyrazin-2-yl]-3,3a,4,5,6,6a-hexahydro-1H-cyclopenta[c]pyrrol-5-amine] | 4 | 30.8
13 | Cc1nn(C)cc1-c1cnc(N[C@H]2C[C@@H]3CN(CC45CC6CC(CC(C6)C4)C5)C[C@@H]3C2)cn1 [Compound 155, (3aR,5s6aS)-2-(1-adamantylmethyl)-N-[5-(1,3-dimethylpyrazol-4-yl)pyrazin-2-yl]-3,3a,4,5,6,6a-hexahydro-1H-cyclopenta[c]pyrrol-5-amine] | 4 | 15.9
14 | CC(=O)Nc1ccc(-c2cnc(N[C@H]3C[C@@H]4CN(CCC(C)(C)C)C[C@@H]4C3)cn2)cc1 [Compound 156, N-[4-[5-[[(3aR,5s,6aS)-2-(3,3-dimethylbutyl)-3,3a,4,5,6,6a-hexahydro-1H-cyclopenta[c]pyrrol-5-yl]amino]pyrazin-2-yl]phenyl]acetamide] | 5 | 192
15 | CC(=O)Nc1ccc(-c2cnc(N[C@H]3C[C@@H]4CN(CC5CC6C=CC5C6)C[C@@H]4C3)cn2)cc1 (stereo partly drawn) [Compound 157, N-[4-[5-[[(3aR,5s,6aS)-2-(5-bicyclo[2.2.1]hept-2-enylmethyl)-3,3a,4,5,6,6a-hexahydro-1H-cyclopenta[c]pyrrol-5-yl]amino]pyrazin-2-yl]phenyl]acetamide] | 5 | 52.9
16 | CC(=O)Nc1ccc(-c2cnc(N[C@H]3C[C@@H]4CN(CC5CCOCC5)C[C@@H]4C3)cn2)cc1 [Compound 158, N-[4-[5-[[(3aR,5s,6aS)-2-(tetrahydropyran-4-ylmethyl)-3,3a,4,5,6,6a-hexahydro-1H-cyclopenta[c]pyrrol-5-yl]amino]pyrazin-2-yl]phenyl]acetamide] | 10 | 1090
17 | Fc1ccc(Cl)c(-c2ccc(N[C@@H]3C[C@@H]4CN(CC5CCOCC5)C[C@@H]4C3)nn2)c1 [Compound 159, (3aR,5r,6aS)-N-[6-(2-chloro-5-fluoro-phenyl)pyridazin-3-yl]-2-(tetrahydropyran-4-ylmethyl)-3,3a,4,5,6,6a-hexahydro-1H-cyclopenta[c]pyrrol-5-amine] | 4 | 84.1
18 | Fc1ccc(Cl)c(-c2ccc(N[C@H]3C[C@@H]4CN(Cc5ccccn5)C[C@@H]4C3)nn2)c1 [Compound 160, (3aR,5s,6aS)-N-[6-(2-chloro-5-fluoro-phenyl)pyridazin-3-yl]-2-(2-pyridylmethyl)-3,3a,4,5,6,6a-hexahydro-1H-cyclopenta[c]pyrrol-5-amine] | 3 | 4.03

Source: patent publication US12577234B2, “Antagonists of the muscarinic acetylcholine receptor M4” (Vanderbilt University, priority 2017, dated 2026)
